Tests used:
Type in all cases: binding
Bcl-b = target: T1, Bcl-b (Homo sapiens, UniProt Q9HD36); assay: Bclb/Bim fluorescence polarization assay (FPA); conditions: BIM BH3 peptide 5 nM, Bcl-b 40 nM, Ki calculated from FPA data
T1 construct: without their C-terminal transmembrane domain; GST; made in house
T1 sequence (Q9HD36 1-182 limits assumed): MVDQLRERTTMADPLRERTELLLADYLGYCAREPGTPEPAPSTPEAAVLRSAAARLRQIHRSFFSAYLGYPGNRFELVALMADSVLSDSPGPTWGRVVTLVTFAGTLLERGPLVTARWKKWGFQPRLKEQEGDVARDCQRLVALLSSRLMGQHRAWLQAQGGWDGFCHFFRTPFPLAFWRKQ
From the text: (§1) Compounds were profiled for their ability to disrupt in vitro binding interactions in fluorescence polarization assays (FPAs) using synthetic fluorochrome-labeled Bcl homology 3 (BH3) peptides derived from BIM [(FAM)-Ahx-[…]-NH2 (SEQ ID NO: 1) (GenBank Accession No. O43521)] or BAK [Ac-GQVGRQLAIIGE-LYS(FAM)-INR-NH2 (SEQ ID NO:2) (GenBank Accession No. Q16611) amino acid sequences and four bacterial recombinant proteins [Bcl-b (GenBank Accession No. Q9HD36), Bcl-2 (GenBank Accession No. P10415), Bcl-Xl (GenBank Accession No. Q07817), Mcl-1 (GenBank Accession No. Q07820)] without their C-terminal transmembrane domain. Proteins were purified from bacterial lysates using their glutathione S-transferase (GST)-tag (Bcl-b, Bcl-2, Mcl-1) or His6-tag (Bcl-Xl) and following one-step affinity chromatography procedures. Dissociation constants (Kd) for peptide binding protein were determined by fluorescence polarization in FPAs measuring BIM BH3 peptide binding Bcl-b, Mcl-1 or Bcl-2 protein or BAK BH3 peptide binding Bcl-Xl protein. The Kd values were generated by fitting the experimental data using a sigmoidal dose-response nonlinear regression model.
(§2) Compound inhibitory concentration values, IC50 (50% reduction in fluorescence polarization), were determined using fluorochrome-labeled BH3 peptides and recombinant Bcl proteins in fluorescence polarization assays (FPAs). Compounds diluted in DMSO (0.5 ul) were transferred (in duplicate) to individual wells of a 384-well plate. The fluorochrome-labeled peptide was added followed by recombinant protein addition. Each binding FPA reaction (50 ul) contained BIM BH3 peptide (5 nM) or BAK BH3 peptide (1.5 nM) and Bcl-b (40 nM), Mcl-1 (28 nM), Bcl-2 (11 nM) or Bcl-Xl. (5 nM) protein suspended in assay buffer [20 mM sodium phosphate, pH 7.4, 1 mM EDTA, 50 mM NaCl., 0.05% Pluronic F68]. Reaction mixtures were incubated at ambient temperature for 60 minutes prior to measuring polarization (mP) using an Analyst (LJL, Molecular Devices, Sunnyvale, Calif.) programmed to detect an emission wavelength of 530 nm after excitation (excitation wavelength=485 nm).
(§3) Competitive compound inhibition constants (Ki) were calculated using FPA experimental data and a mathematical equation, Ki=[I]50/([L]50/Kd+[P]0/Kd+1), where [I]50 denotes free inhibitor concentration at 50% inhibition, [L]50 is free labeled ligand concentration at 50% inhibition, [P]0 is free protein concentration at 0% inhibition, and Kd is the dissociation constant of the protein-ligand complex.

Bcl-2 = target: T2, Bcl-2 (Homo sapiens, UniProt P10415); assay: Bcl2/Bim fluorescence polarization assay (FPA); conditions: BIM BH3 peptide 5 nM, Bcl-2 11 nM, Ki calculated from FPA data
T2 construct: without their C-terminal transmembrane domain; GST; made in house
T2 sequence (P10415 1-211 limits assumed): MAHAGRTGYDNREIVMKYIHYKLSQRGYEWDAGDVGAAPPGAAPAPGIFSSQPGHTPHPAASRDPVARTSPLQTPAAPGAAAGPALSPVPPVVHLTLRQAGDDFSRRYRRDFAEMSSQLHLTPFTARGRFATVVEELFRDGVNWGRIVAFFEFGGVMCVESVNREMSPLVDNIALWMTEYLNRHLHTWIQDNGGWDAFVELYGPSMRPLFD
From the text: as §1, §2, §3

Mcl-1 = target: T3, Mcl-1 (Homo sapiens, UniProt Q07820); assay: Mcl-1/Bim fluorescence polarization assay (FPA); conditions: BIM BH3 peptide 5 nM, Mcl-1 28 nM, Ki calculated from FPA data
T3 construct: without their C-terminal transmembrane domain; GST; made in house
T3 sequence (Q07820 1-327 limits assumed): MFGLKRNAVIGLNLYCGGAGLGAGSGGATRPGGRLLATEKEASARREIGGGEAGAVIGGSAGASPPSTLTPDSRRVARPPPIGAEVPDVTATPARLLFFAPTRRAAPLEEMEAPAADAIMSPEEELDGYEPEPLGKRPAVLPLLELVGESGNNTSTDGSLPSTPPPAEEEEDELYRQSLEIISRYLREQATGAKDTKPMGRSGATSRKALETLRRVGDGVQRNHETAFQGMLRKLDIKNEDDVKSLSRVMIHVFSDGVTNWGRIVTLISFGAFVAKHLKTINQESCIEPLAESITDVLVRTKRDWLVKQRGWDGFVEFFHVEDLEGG
From the text: as §1, §2, §3

Row | Compound | Ki (Bcl-b) | Ki (Bcl-2) | Ki (Mcl-1)
1 | O=C(NCc1cccc(CN(Cc2ccc(F)cc2)S(=O)(=O)c2cc(Cl)cc(Cl)c2O)c1)c1cc(O)nc(O)c1 [Example 2, N-(3-((3,5-Dichloro-N-(4-fluorobenzyl)-2-hydroxyphenylsulfonamido)methyl)benzyl)-2,6-dihydroxyisonicotinamide] | 50 nM | 20 nM | 20 nM
2 | N#Cc1ccc(S(=O)(=O)NCc2cccc(CN(Cc3ccc(-c4ccccc4)cc3)S(=O)(=O)c3cc(Cl)cc(Cl)c3O)c2)cc1 [Example 4, N-(Biphenyl-4-ylmethyl)-3,5-dichloro-N-(3-((4-cyanophenylsulfonamido)methyl)benzyl)-2-hydroxybenzenesulfonamide] | 280 nM | 60 nM | 60 nM
3 | Cc1ccc(S(=O)(=O)N(Cc2cc(CN(Cc3ccc(F)cc3)S(=O)(=O)c3cc(Cl)cc(Cl)c3O)cc(Oc3ccc(F)cc3)c2)CC(C)C)cc1 [Example 8, 3,5-Dichloro-N-(4-fluorobenzyl)-N-(3-(4-fluorophenoxy)-5-((N-isobutyl-4-methylphenylsulfonamido)methyl)benzyl)-2-hydroxybenzenesulfonamide] | 100 nM | 10 nM | 40 nM
4 | Cc1ccc(S(=O)(=O)N(Cc2ccc(F)cc2)Cc2cc(CNS(=O)(=O)c3cc(Cl)cc(Cl)c3O)cc(-c3ccc(F)cc3)c2)cc1 [Example 13, 3,5-Dichloro-N-((4′-fluoro-5-((N-(4-fluorobenzyl)-4-methylphenylsulfonamido)methyl)biphenyl-3-yl)methyl)-2-hydroxybenzenesulfonamide] | 90 nM | 20 nM | 30 nM
5 | CC(C)CN(Cc1cc(Cl)cc(CN(CC(C)C)S(=O)(=O)c2cc(Cl)cc(Cl)c2O)c1)S(=O)(=O)c1cccnc1 [Example 15] | 80 nM | 10 nM | 10 nM
6 | COc1ccc(S(N)(=O)=O)cc1C(=O)NCc1cccc(CN(Cc2ccc(-c3ccccc3)cc2)S(=O)(=O)c2cc(Cl)cc(Cl)c2O)c1 [Example 39, N-(3-((N-(biphenyl-4-ylmethyl)-3,5-dichloro-2-hydroxyphenyl-sulfonamido)methyl)benzyl)-2-methoxy-5-sulfamoylbenzamide] | 289 nM | 153 nM | 207 nM
7 | O=C(O)c1ccc(S(=O)(=O)NCc2cccc(CN(Cc3ccc(-c4ccccc4)cc3)S(=O)(=O)c3cc(Cl)cc(Cl)c3O)c2)cc1 [Example 49, 4-(N-(3-((N-(biphenyl-4-ylmethyl)-3,5-dichloro-2-hydroxyphenyl-sulfonamido)methyl)benzyl)sulfamoyl)benzoic acid] | 138 nM | 347 nM | 204 nM
8 | CS(=O)(=O)c1ccc(CN(Cc2cccc(CNS(=O)(=O)c3cc(Cl)cc(Cl)c3O)c2)S(=O)(=O)c2cc(Cl)cc(Cl)c2O)cc1 [Example 56, 3,5-dichloro-N-(3-((3,5-dichloro-2-hydroxyphenyl-sulfonamido)methyl)benzyl)-2-hydroxy-N-(4-(methylsulfonyl)benzyl) benzenesulfonamide] | 103 nM | 148 nM | 187 nM
9 | CCN(CC)CCOc1ccc(CN(Cc2cccc(CNS(=O)(=O)c3cc(Cl)cc(Cl)c3O)c2)S(=O)(=O)c2cc(Cl)cc(Cl)c2O)cc1 [Example 61, 3,5-dichloro-N-(3-((3,5-dichloro-2-hydroxyphenylsulfonamido)methyl)benzyl)-N-(4-(2-(diethylamino)ethoxy)benzyl)-2-hydroxybenzenesulfonamide] | 133 nM | 500 nM | 1020 nM
10 | O=S(=O)(NCc1cccc(CN(Cc2ccccc2SC(F)(F)F)S(=O)(=O)c2cc(Cl)cc(Cl)c2O)c1)c1cc(Cl)cc(Cl)c1O [Example 64] | 74 nM | 96 nM | 169 nM
11 | CC(C)CN(Cc1cc(Cl)cc(CN(CC(C)C)S(=O)(=O)c2cc(Cl)cc(Cl)c2O)c1)C(=O)c1ccc(SC(F)(F)F)cc1 [Example 71, N-(3-chloro-5-((3,5-dichloro-2-hydroxy-N-isobutylphenylsulfonamido)methyl)benzyl)-N-isobutyl-4-(trifluoromethylthio)benzamide] | 247 nM | 469 nM | 970 nM
12 | CC(C)CN(Cc1cc(Cl)cc(CN(CC(C)C)S(=O)(=O)c2cc(Cl)cc(Cl)c2O)c1)C(=O)c1cccc(SC(F)(F)F)c1 [Example 72, N-(3-chloro-5-((3,5-dichloro-2-hydroxy-N-isobutylphenylsulfonamido)methyl)benzyl)-N-isobutyl-3-(trifluoromethylthio)benzamide] | 182 nM | 349 nM | 1150 nM
13 | CC(C)CN(Cc1cc(Cl)cc(CN(CC(C)C)S(=O)(=O)c2cc(Cl)cc(Cl)c2O)c1)C(=O)c1cccc(S(=O)(=O)C(F)(F)F)c1 [Example 73, N-(3-chloro-5-((3,5-dichloro-2-hydroxy-N-isobutylphenylsulfonamido)methyl)benzyl)-N-isobutyl-3-(trifluoromethylsulfonyl)benzamide] | 144 nM | 319 nM | 384 nM
14 | CS(=O)(=O)c1cccc(CN(Cc2cc(CNC(=O)c3cccc(Oc4ccccc4)c3)cc(Oc3ccc(F)cc3)c2)S(=O)(=O)c2cc(Cl)cc(Cl)c2O)c1 [Example 77, N-(3-((3,5-dichloro-2-hydroxy-N-(3-(methylsulfonyl)benzyl)phenylsulfonamido)methyl)-5-(4-fluorophenoxy)benzyl)-3-phenoxybenzamide] | 77 nM | 133 nM | 194 nM
15 | O=S(=O)(c1cc(Cl)cc(Cl)c1)N(Cc1ccc(F)cc1)Cc1cccc(CN(Cc2ccc(F)cc2)S(=O)(=O)c2cc(Cl)cc(Cl)c2O)n1 [Example 91, 3,5-dichloro-N-((6-((3,5-dichloro-N-(4-fluorobenzyl)phenylsulfonamido)methyl)pyridin-2-yl)methyl)-N-(4-fluorobenzyl)-2-hydroxybenzenesulfonamide] | 33 nM | 42 nM | 52 nM
16 | O=S(=O)(c1cc(Cl)cc(Cl)c1)N(Cc1ccc(F)cc1)Cc1cccc(CN(Cc2ccc(F)cc2)S(=O)(=O)c2cc(Cl)cc(Cl)c2O)[n+]1[O-] [Example 92, 2-((3,5-dichloro-N-(4-fluorobenzyl)-2-hydroxyphenylsulfonamido)methyl)-6-((3,5-dichloro-N-(4-fluorobenzyl)phenylsulfonamido)methyl)pyridine 1-oxide] | 12 nM | 46 nM | 60 nM
17 | O=S(=O)(c1cccc(CN(Cc2ccc(F)cc2)S(=O)(=O)c2cc(Cl)cc(Cl)c2O)c1)N(Cc1ccc(F)cc1)Cc1cc(Cl)cc(Cl)c1 [Example 94, 3,5-Dichloro-N-(3-(N-(3,5-dichlorobenzyl)-N-(4-fluorobenzyl)sulfamoyl)benzyl)-N-(4-fluorobenzyl)-2-hydroxybenzenesulfonamide] | 40 nM | 60 nM | 60 nM
18 | O=C(c1cccc(CN(Cc2ccc(F)cc2)S(=O)(=O)c2cc(Cl)cc(Cl)c2O)c1)N(Cc1ccc(F)cc1)Cc1cc(Cl)cc(Cl)c1 [Example 95, 3-((3,5-Dichloro-N-(4-fluorobenzyl)-2-hydroxyphenylsulfonamido)methyl)-N-(3,5-dichlorobenzyl)-N-(4-fluorobenzyl)benzamide] | 60 nM | 120 nM | 70 nM
19 | O=S(=O)(c1cc(Cl)cc(Cl)c1O)N(Cc1ccc(F)cc1)Cc1ccc(CN(Cc2ccc(F)cc2)S(=O)(=O)c2cc(Cl)cc(Cl)c2O)cc1 [Example 96, N-(4-Fluoro-benzyl)-N-(4-{[(4-fluoro-benzyl)-(3,5-dichloro-2-hydroxybenzene)sulfonyl-amino]-methyl}-benzyl)-3,5-dichloro-2-hydroxybenzenesulfonamide] | 60 nM | 110 nM | 10 nM
